Measurements from ChEMBL document CHEMBL3885861, “Open TG-GATES”.

Species: Rattus norvegicus
Test: Open TG-GATES - Regimen: Daily Repeat
Type: toxicity, organism-based, Sprague-Dawley
Set-up: regimen Daily Repeat, gender Male, age 6 weeks
Settings: in vivo, po, route gavage; for TP / gamma-GTP / ALP / ALT / AST / BUN / CRE / DBIL / GLC / IP / K / LDH / Na / PL / RALB / TBIL / TC / TG: tissue Plasma; for APTT / Bas / Eos / Fbg / Ht / Lym / MCH / MCHC / MCV / Mono / Neu / Plat / RBC / Ret / WBC: tissue Blood
[1] = 45 mg/kg, […], dose level Low, time 28 day
[2] = 150 mg/kg, 72 h, dose level Middle, time 3 day
[3] = 150 mg/kg, […], dose level Middle, time 7 day
[4] = 150 mg/kg, […], dose level Middle, time 14 day
[5] = 150 mg/kg, […], dose level Middle, time 28 day
[6] = 450 mg/kg, 72 h, dose level High, time 3 day
[7] = 450 mg/kg, […], dose level High, time 7 day
[8] = 450 mg/kg, […], dose level High, time 14 day
[9] = 450 mg/kg, […], dose level High, time 28 day

## CCCC(CCC)C(=O)O [VALPROIC ACID]
[1]
  TP: 5.9 g/dL
  gamma-GTP: 0.6 IU/L
[2]
  TERMINAL_BW: 227 g
  APTT: 19.8 s
  Bas: 0%
  Eos: 1%
  Fbg: 219.8 mg/dL
  Ht: 38.6%
  Lym: 78%
  MCH: 21.6 pg
  MCHC: 34.3%
  MCV: 62.9 fL
  Mono: 3.8%
  Neu: 17%
  Plat: 140.1 x10_4/uL
  RBC: 614.2 x10_4/ul
  Ret: 6.8%
  WBC: 106.9 x10_2/uL
  ALP: 920.6 IU/L
  ALT: 40 IU/L
  AST: 73.6 IU/L
  BUN: 16.2 mg/dL
  CRE: 0.4 mg/dL
  DBIL: 0.074 mg/dL
  GLC: 211.4 mg/dL
  IP: 7.9 mg/dL
  K: 3.8 meq/L
  LDH: 179.2 IU/L
  Na: 141.4 meq/L
  PL: 148.6 mg/dL
  RALB: 3.3 g/dL
  TBIL: 0.1 mg/dL
  TC: 76.8 mg/dL
  TG: 73 mg/dL
  TP: 5.4 g/dL
  gamma-GTP: 1.2 IU/L
[3]
  TERMINAL_BW: 255.5 g
  APTT: 19.5 s
  Bas: 0%
  Eos: 1.2%
  Fbg: 219.6 mg/dL
  Ht: 40.1%
  Lym: 81%
  MCH: 20.8 pg
  MCHC: 33.9%
  MCV: 61.3 fL
  Mono: 3.4%
  Plat: 129.5 x10_4/uL
  RBC: 655 x10_4/ul
  Ret: 5.7%
  WBC: 106 x10_2/uL
  ALP: 816 IU/L
  ALT: 29.8 IU/L
  AST: 59.2 IU/L
  BUN: 15.4 mg/dL
  CRE: 0.4 mg/dL
  DBIL: 0.078 mg/dL
  GLC: 220.6 mg/dL
  IP: 7.2 mg/dL
  K: 3.7 meq/L
  LDH: 194.4 IU/L
  Na: 140.6 meq/L
  RALB: 3.4 g/dL
  TBIL: 0.1 mg/dL
  TC: 69.4 mg/dL
  TG: 109.4 mg/dL
  TP: 5.6 g/dL
  gamma-GTP: 1.4 IU/L
[4]
  TERMINAL_BW: 311.1 g
  APTT: 18.7 s
  Bas: 0%
  Eos: 1%
  Fbg: 216.8 mg/dL
  Ht: 42.3%
  Lym: 83.2%
  MCH: 20.6 pg
  MCHC: 35%
  MCV: 58.9 fL
  Mono: 2.6%
  Neu: 13.2%
  Plat: 108.8 x10_4/uL
  RBC: 720 x10_4/ul
  Ret: 4%
  WBC: 93.8 x10_2/uL
  ALP: 877.8 IU/L
  ALT: 34.4 IU/L
  AST: 64.2 IU/L
  BUN: 16.6 mg/dL
  CRE: 0.4 mg/dL
  DBIL: 0.082 mg/dL
  GLC: 218.2 mg/dL
  IP: 7.9 mg/dL
  K: 3.8 meq/L
  LDH: 176.8 IU/L
  Na: 140.4 meq/L
  PL: 153.2 mg/dL
  RALB: 3.4 g/dL
  TBIL: 0.1 mg/dL
  TC: 69.4 mg/dL
  TG: 123 mg/dL
  TP: 5.8 g/dL
  gamma-GTP: 0.8 IU/L
[5]
  TERMINAL_BW: 400.1 g
  APTT: 19.7 s
  Bas: 0%
  Eos: 1.4%
  Fbg: 214.2 mg/dL
  Ht: 42.1%
  Lym: 83.2%
  MCH: 19 pg
  MCHC: 35.2%
  MCV: 53.9 fL
  Mono: 2.6%
  Neu: 12.4%
  Plat: 116.1 x10_4/uL
  RBC: 781.6 x10_4/ul
  Ret: 2.3%
  WBC: 89.2 x10_2/uL
  ALP: 729.4 IU/L
  ALT: 35 IU/L
  AST: 65 IU/L
  BUN: 17.6 mg/dL
  CRE: 0.4 mg/dL
  DBIL: 0.1 mg/dL
  GLC: 208.2 mg/dL
  IP: 6.7 mg/dL
  K: 3.9 meq/L
  LDH: 178.4 IU/L
  Na: 141 meq/L
  PL: 142.4 mg/dL
  RALB: 3.5 g/dL
  TBIL: 0.2 mg/dL
  TC: 66.6 mg/dL
  TG: 130.4 mg/dL
  TP: 6.1 g/dL
  gamma-GTP: 0.6 IU/L
[6]
  TERMINAL_BW: 225.2 g
  APTT: 19.4 s
  Bas: 0%
  Eos: 1%
  Fbg: 213.4 mg/dL
  Ht: 38.5%
  Lym: 79.2%
  MCH: 21.5 pg
  MCHC: 34.4%
  MCV: 62.4 fL
  Mono: 2.8%
  Neu: 16.4%
  Plat: 131.5 x10_4/uL
  RBC: 618.2 x10_4/ul
  Ret: 5.1%
  WBC: 85.9 x10_2/uL
  ALP: 765 IU/L
  ALT: 31.2 IU/L
  AST: 64.8 IU/L
  BUN: 14.6 mg/dL
  CRE: 0.4 mg/dL
  DBIL: 0.07 mg/dL
  GLC: 201.8 mg/dL
  IP: 7.9 mg/dL
  K: 3.7 meq/L
  LDH: 197.2 IU/L
  Na: 141.8 meq/L
  PL: 136 mg/dL
  RALB: 3.4 g/dL
  TBIL: 0.1 mg/dL
  TC: 67.2 mg/dL
  TG: 64.8 mg/dL
  TP: 5.5 g/dL
  gamma-GTP: 1.2 IU/L
[7]
  TERMINAL_BW: 257.7 g
  APTT: 19.5 s
  Bas: 0%
  Eos: 0.8%
  Fbg: 209.8 mg/dL
  Ht: 39.4%
  Lym: 78.8%
  MCH: 21.1 pg
  MCHC: 34.2%
  MCV: 61.7 fL
  Mono: 4.2%
  Plat: 114.2 x10_4/uL
  RBC: 639.6 x10_4/ul
  Ret: 6%
  WBC: 111.1 x10_2/uL
  ALP: 901.6 IU/L
  ALT: 35.2 IU/L
  AST: 65.6 IU/L
  BUN: 16.2 mg/dL
  CRE: 0.4 mg/dL
  DBIL: 0.082 mg/dL
  GLC: 217.6 mg/dL
  IP: 7.5 mg/dL
  K: 3.9 meq/L
  LDH: 204.2 IU/L
  Na: 139.4 meq/L
  PL: 132.8 mg/dL
  RALB: 3.3 g/dL
  TBIL: 0.1 mg/dL
  TC: 62 mg/dL
  TG: 94.4 mg/dL
  TP: 5.6 g/dL
  gamma-GTP: 1.4 IU/L
[8]
  TERMINAL_BW: 310.7 g
  APTT: 18.5 s
  Bas: 0%
  Eos: 0.8%
  Fbg: 226.2 mg/dL
  Ht: 41.6%
  Lym: 84%
  MCH: 20.2 pg
  MCHC: 34.6%
  MCV: 58.4 fL
  Mono: 3.6%
  Neu: 10.6%
  Plat: 116.8 x10_4/uL
  RBC: 712.6 x10_4/ul
  Ret: 4.7%
  WBC: 84.9 x10_2/uL
  ALP: 786 IU/L
  ALT: 33 IU/L
  AST: 64.6 IU/L
  BUN: 17 mg/dL
  CRE: 0.4 mg/dL
  DBIL: 0.086 mg/dL
  GLC: 207.6 mg/dL
  IP: 6.9 mg/dL
  K: 3.7 meq/L
  LDH: 189.2 IU/L
  Na: 140.2 meq/L
  PL: 140.4 mg/dL
  RALB: 3.4 g/dL
  TBIL: 0.1 mg/dL
  TC: 65 mg/dL
  TG: 101 mg/dL
  TP: 5.7 g/dL
  gamma-GTP: 1.6 IU/L
[9]
  TERMINAL_BW: 375.7 g
  APTT: 20.4 s
  Bas: 0%
  Eos: 1%
  Fbg: 201 mg/dL
  Ht: 41.7%
  Lym: 85%
  MCH: 19.1 pg
  MCHC: 34.7%
  MCV: 55.1 fL
  Mono: 3%
  Neu: 10%
  Plat: 101.4 x10_4/uL
  RBC: 757 x10_4/ul
  Ret: 2.4%
  WBC: 78.5 x10_2/uL
  ALP: 583.2 IU/L
  ALT: 29.2 IU/L
  AST: 62.8 IU/L
  BUN: 17.8 mg/dL
  CRE: 0.5 mg/dL
  DBIL: 0.078 mg/dL
  GLC: 198.8 mg/dL
  IP: 5.9 mg/dL
  K: 3.9 meq/L
  LDH: 209.8 IU/L
  Na: 140.4 meq/L
  PL: 126.6 mg/dL
  RALB: 3.4 g/dL
  TBIL: 0.1 mg/dL
  TC: 55.4 mg/dL
  TG: 98.4 mg/dL
  TP: 5.7 g/dL
  gamma-GTP: 1 IU/L
